Laboratory results: paper PMC8315078, “Molecular imaging of fibroblast activation protein after myocardial infarction using the novel radiotracer [^68Ga]MHLL1” (Theranostics, 2021)

Tests used:
[1] = target: fibroblast activation protein (murine FAP, mFAP) (Mus musculus, UniProt P97321)
[2] = target: T1, fibroblast activation protein (human FAP, hFAP) (Homo sapiens, UniProt Q12884); assay: displacement of […]MHLL1 by cold compound in hFAP-transfected HT1080 cells (internalized activity); wild-type cells negative; assay type: cell-based
T1 sequence (Q12884 1-760): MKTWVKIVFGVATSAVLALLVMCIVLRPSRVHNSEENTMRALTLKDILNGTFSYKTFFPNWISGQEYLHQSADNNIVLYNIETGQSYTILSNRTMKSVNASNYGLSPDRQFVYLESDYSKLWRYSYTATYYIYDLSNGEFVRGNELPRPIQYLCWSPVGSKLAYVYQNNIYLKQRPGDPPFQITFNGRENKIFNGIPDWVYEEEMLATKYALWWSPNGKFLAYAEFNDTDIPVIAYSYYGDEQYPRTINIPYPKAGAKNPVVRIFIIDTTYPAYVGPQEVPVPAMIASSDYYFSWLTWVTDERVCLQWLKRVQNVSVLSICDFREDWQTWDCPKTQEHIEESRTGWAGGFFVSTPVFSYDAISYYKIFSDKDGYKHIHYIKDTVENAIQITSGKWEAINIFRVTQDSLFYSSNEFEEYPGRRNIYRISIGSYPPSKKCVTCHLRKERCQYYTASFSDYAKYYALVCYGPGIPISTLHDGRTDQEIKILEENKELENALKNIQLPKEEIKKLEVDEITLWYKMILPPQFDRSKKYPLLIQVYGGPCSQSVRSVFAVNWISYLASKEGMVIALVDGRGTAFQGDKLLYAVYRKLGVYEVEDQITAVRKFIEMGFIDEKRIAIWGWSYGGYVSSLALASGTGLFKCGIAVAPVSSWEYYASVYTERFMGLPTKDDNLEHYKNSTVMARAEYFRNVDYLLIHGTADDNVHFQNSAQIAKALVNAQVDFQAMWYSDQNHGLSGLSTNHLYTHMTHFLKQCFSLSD

Chain of fibroblast activation protein (murine FAP, mFAP) (P97321 whole entry): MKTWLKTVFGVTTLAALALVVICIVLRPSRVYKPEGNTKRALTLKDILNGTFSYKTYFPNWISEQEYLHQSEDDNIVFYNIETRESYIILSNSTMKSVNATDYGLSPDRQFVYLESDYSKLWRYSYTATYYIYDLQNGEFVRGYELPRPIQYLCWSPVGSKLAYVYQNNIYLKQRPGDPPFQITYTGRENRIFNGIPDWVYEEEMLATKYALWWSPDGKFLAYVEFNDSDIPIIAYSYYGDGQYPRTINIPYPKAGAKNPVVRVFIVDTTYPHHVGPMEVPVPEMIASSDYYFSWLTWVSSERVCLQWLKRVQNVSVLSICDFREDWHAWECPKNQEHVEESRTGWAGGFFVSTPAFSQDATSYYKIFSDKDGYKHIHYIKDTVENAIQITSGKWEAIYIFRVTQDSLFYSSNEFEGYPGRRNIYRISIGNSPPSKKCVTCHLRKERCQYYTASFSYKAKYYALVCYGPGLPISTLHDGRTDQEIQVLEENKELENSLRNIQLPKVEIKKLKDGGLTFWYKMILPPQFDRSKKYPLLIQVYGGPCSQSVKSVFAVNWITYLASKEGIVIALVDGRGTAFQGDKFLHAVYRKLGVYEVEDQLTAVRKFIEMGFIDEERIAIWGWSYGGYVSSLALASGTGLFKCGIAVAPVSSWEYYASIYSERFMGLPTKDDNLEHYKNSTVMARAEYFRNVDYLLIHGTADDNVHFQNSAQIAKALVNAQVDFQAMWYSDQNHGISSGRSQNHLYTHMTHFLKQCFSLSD

N#C[C@@H]1CCCN1C(=O)CNC(=S)Nc1ccc(CNC(=O)CCC2C(=O)[O][Ga]3[O]C(=O)CN4CCN(CCN2CC4)CC(=O)[O]3)cc1 (stereo partly drawn) [[^natGa]MHLL1, [^68Ga]Ga-2,2'-(7-(1-carboxy-4-((4-(3-(2-((S)-2-cyano-pyrrolidin-1-yl)-2-oxoethyl)thioureido)benzyl)amino)-4-oxobutyl)-1,4,7-triazonane-1,4-diyl)diacetic acid]
IC50 [1]: 0.142 µM | IC50 [2]: 0.212 µM
